Our source for the IC50, inhibition in vivo and TGI values is ChEMBL document CHEMBL2429838, “Synthesis and antitumor activity evaluation of 2-arylisoquinoline-1,3(2H,4H)-diones in vitro and in vivo” (Med Chem Res, 2013).

SMILES strings stand for the structures.

For assay [1], the system named is A549. Kind of assay: Cytotoxicity against human A549 cells after 48 hrs by MTT assay. It is filed as functional, cell-based. As to conditions: A549, 48 h. (Formazan colour is commonly taken as a measure of viable cells.)
For assay [2], the system named is PC-3. As to the kind of experiment: Cytotoxicity against human PC3 cells after 48 hrs by MTT assay. It is filed as functional, cell-based. The note with it: PC-3, 48 h.
For assay [3], the system named is A-431. Kind of assay: Cytotoxicity against human A431 cells after 48 hrs by MTT assay. As to conditions: A-431, 48 h. It is filed as functional, cell-based.
Assay [4] concerns PANC-1. Kind of assay: Antitumor activity against human PANC1 cells xenografted in mouse assessed as tumor growth inhibition at 25 mg/kg, po qd for 13 days measured up to 21 days. It is filed as functional. As to conditions: read-out: TGI.
In assay [5] the test system is PANC-1. Kind of assay: Antitumor activity against human PANC1 cells xenografted in mouse assessed as tumor growth inhibition at 5 mg/kg, po qd for 13 days measured up to 21 days. As to conditions: read-out: TGI. It is filed as functional. For orientation: In xenograft studies the graft and the host belong to different species.
For assay [6], the system named is PANC-1. Kind of assay: Antitumor activity against human PANC1 cells xenografted in po dosed mouse assessed as tumor growth inhibition administered qd for 13 days measured up to 21 days. It is filed as functional, organism-based.

A word on the IC50: it is the concentration at which inhibition is half-maximal. A low value points to inhibition by little substance.

With `C#Cc1cccc(N2C(=O)Cc3cc(OC)cc(OC)c3C2=O)c1`, the concentration for half-maximal inhibition (IC50) is > 100 µM in assay [1], 28.9 µM in assay [2] and 60.4 µM in assay [3].
With `COc1cc2c(c(OC)c1)C(=O)N(c1ccc3nc(NC(=O)C4CC4)sc3c1)C(=O)C2`, in assay [4], the inhibition in vivo at 25 mg/kg came out at 31.5%. The IC50 in assay [1] was determined as 12.7 µM; in assay [2], 7.7 µM; in assay [3], 7.01 µM. The inhibition in vivo at 5 mg/kg in assay [5] was found to be 23.7%. Besides, the TGI entry in assay [6] is “Dose-dependent effect”.
Take `O=C(Nc1nc2ccc(N3C(=O)Cc4ccccc4C3=O)cc2s1)C1CC1`: the 50% inhibitory concentration (IC50) came out at 22.3 µM in assay [1], 16.7 µM in assay [2] and 46.8 µM in assay [3].
In the same order, the values of `COc1cc2c(c(OC)c1)C(=O)N(c1cccc(C(F)(F)F)c1)C(=O)C2` are > 100 µM, 45.3 µM and 62.5 µM.
In the same order, the values of `COc1cc2c(c(OC)c1)C(=O)N(c1ccc(C(F)(F)F)cc1)C(=O)C2` are 32.1 µM, 17.1 µM and 32.8 µM.
Taken in the same sequence, the figures for `COc1ccc(N2C(=O)Cc3cc(OC)cc(OC)c3C2=O)cc1` were > 100 µM, > 100 µM and 78.9 µM.
For `O=C(Nc1nc2ccc(N3C(=O)Cc4ccc(F)cc4C3=O)cc2s1)C1CC1`, the IC50 in assay [1] was determined as 12.6 µM; in assay [2], 11.7 µM; in assay [3], 8.64 µM.
Turning to `COc1ccc2c(c1)CC(=O)N(c1ccc3nc(NC(=O)C4CC4)sc3c1)C2=O`, the IC50 turned out to be 20.7 µM in assay [1], 10.5 µM in assay [2] and 12 µM in assay [3].
Consider `COc1cc2c(c(OC)c1)C(=O)N(c1ccc(C)cc1)C(=O)C2`, for which the 50% inhibitory concentration (IC50) in assay [1] was 43.6 µM; in assay [2] it was 21 µM; in assay [3], 47.6 µM.
For the compound `COc1cc2c(c(OC)c1OC)C(=O)N(c1ccc3nc(NC(=O)C4CC4)sc3c1)C(=O)C2`, the IC50 in assay [1] was found to be 16.2 µM; in assay [2], 20.6 µM; in assay [3] it was 7.58 µM.
Regarding `O=C(Nc1ccc2nc(NC(=O)C3CC3)sc2c1)c1c(Cl)cccc1Cl`, the IC50 in assay [1] was found to be 9 µM; in assay [2] it was 2.01 µM.
As to `COc1cc2c(c(OC)c1)C(=O)N(c1ccc3nc(NC(C)=O)sc3c1)C(=O)C2`, the figures for the IC50 in assay [1], in assay [2] and in assay [3] were 20.5 µM, 11.2 µM and 11.9 µM, respectively.
